Tested on: Transport facilitation protein genes
Experiment: DNA chip mRNA expression in yeast, transport facilitation protein genes (Table 5)
Type: cell-based, Saccharomyces cerevisiae S288C
Method in brief: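 Chemical exposure: 2 h, log-phase S. cerevisiae S288C, YPD, 25° C., dose set to inhibit growth without death. Profiling: mRNA labeled by reverse transcription with Cy3- or Cy5-dUTP, hybridized to whole-genome array. Output: fluorescence ratio against untreated culture.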

CN(C)C(=S)SSC(=S)N(C)C [(10), Tetramethylthiuram disulfide]
The level of expressed mRNA in the presence of chemical substance/The level of expressed mRNA in the absence of chemical substance (yeast gene YGR281W): 1.4 | The level of expressed mRNA in the presence of chemical substance/The level of expressed mRNA in the absence of chemical substance (yeast gene YHL035C): 4.6 | The level of expressed mRNA in the presence of chemical substance/The level of expressed mRNA in the absence of chemical substance (yeast gene YHL036W): 4.4 | The level of expressed mRNA in the presence of chemical substance/The level of expressed mRNA in the absence of chemical substance (yeast gene YHL040C): 11.3 | The level of expressed mRNA in the presence of chemical substance/The level of expressed mRNA in the absence of chemical substance (yeast gene YHL047C): 11.9 | The level of expressed mRNA in the presence of chemical substance/The level of expressed mRNA in the absence of chemical substance (yeast gene YHR026W): 0.9 | The level of expressed mRNA in the presence of chemical substance/The level of expressed mRNA in the absence of chemical substance (yeast gene YHR092C): 0.9 | The level of expressed mRNA in the presence of chemical substance/The level of expressed mRNA in the absence of chemical substance (yeast gene YHR094C): 1.2 | The level of expressed mRNA in the presence of chemical substance/The level of expressed mRNA in the absence of chemical substance (yeast gene YHR175W): 2.0 | The level of expressed mRNA in the presence of chemical substance/The level of expressed mRNA in the absence of chemical substance (yeast gene YIL006W): 1.1 | The level of expressed mRNA in the presence of chemical substance/The level of expressed mRNA in the absence of chemical substance (yeast gene YIL022W): 1.3 | The level of expressed mRNA in the presence of chemical substance/The level of expressed mRNA in the absence of chemical substance (yeast gene YIL056W): 1.6 | The level of expressed mRNA in the presence of chemical substance/The level of expressed mRNA in the absence of chemical substance (yeast gene YIL088C): 1.7 | The level of expressed mRNA in the presence of chemical substance/The level of expressed mRNA in the absence of chemical substance (yeast gene YJL034W): 1.1 | The level of expressed mRNA in the presence of chemical substance/The level of expressed mRNA in the absence of chemical substance (yeast gene YJL212C): 1.3 | The level of expressed mRNA in the presence of chemical substance/The level of expressed mRNA in the absence of chemical substance (yeast gene YJL219W): 2.3 | The level of expressed mRNA in the presence of chemical substance/The level of expressed mRNA in the absence of chemical substance (yeast gene YJR077C): 0.7 | The level of expressed mRNA in the presence of chemical substance/The level of expressed mRNA in the absence of chemical substance (yeast gene YJR106W): 1.6 | The level of expressed mRNA in the presence of chemical substance/The level of expressed mRNA in the absence of chemical substance (yeast gene YJR121W): 1.3 | The level of expressed mRNA in the presence of chemical substance/The level of expressed mRNA in the absence of chemical substance (yeast gene YKL016C): 1.8 | The level of expressed mRNA in the presence of chemical substance/The level of expressed mRNA in the absence of chemical substance (yeast gene YKL146W): 2.8 | The level of expressed mRNA in the presence of chemical substance/The level of expressed mRNA in the absence of chemical substance (yeast gene YKL188C): 2.8 | The level of expressed mRNA in the presence of chemical substance/The level of expressed mRNA in the absence of chemical substance (yeast gene YKR039W): 2.0 | The level of expressed mRNA in the presence of chemical substance/The level of expressed mRNA in the absence of chemical substance (yeast gene YKR067W): 2.3 | The level of expressed mRNA in the presence of chemical substance/The level of expressed mRNA in the absence of chemical substance (yeast gene YLL028W): 2.3 | The level of expressed mRNA in the presence of chemical substance/The level of expressed mRNA in the absence of chemical substance (yeast gene YLL055W): 14.0 | The level of expressed mRNA in the presence of chemical substance/The level of expressed mRNA in the absence of chemical substance (yeast gene YLR081W): 2.2 | The level of expressed mRNA in the presence of chemical substance/The level of expressed mRNA in the absence of chemical substance (yeast gene YLR295C): 1.2 | The level of expressed mRNA in the presence of chemical substance/The level of expressed mRNA in the absence of chemical substance (yeast gene YLR348C): 1.3 | The level of expressed mRNA in the presence of chemical substance/The level of expressed mRNA in the absence of chemical substance (yeast gene YLR378C): 0.7 | The level of expressed mRNA in the presence of chemical substance/The level of expressed mRNA in the absence of chemical substance (yeast gene YMR011W): 0.7 | The level of expressed mRNA in the presence of chemical substance/The level of expressed mRNA in the absence of chemical substance (yeast gene YMR058W): 1.4 | The level of expressed mRNA in the presence of chemical substance/The level of expressed mRNA in the absence of chemical substance (yeast gene YMR162C): 1.0 | The level of expressed mRNA in the presence of chemical substance/The level of expressed mRNA in the absence of chemical substance (yeast gene YMR203W): 1.2 | The level of expressed mRNA in the presence of chemical substance/The level of expressed mRNA in the absence of chemical substance (yeast gene YNL055C): 1.0 | The level of expressed mRNA in the presence of chemical substance/The level of expressed mRNA in the absence of chemical substance (yeast gene YNL259C): 2.1 | The level of expressed mRNA in the presence of chemical substance/The level of expressed mRNA in the absence of chemical substance (yeast gene YNR072W): 1.8 | The level of expressed mRNA in the presence of chemical substance/The level of expressed mRNA in the absence of chemical substance (yeast gene YOL119C): 7.4 | The level of expressed mRNA in the presence of chemical substance/The level of expressed mRNA in the absence of chemical substance (yeast gene YOL156W): 2.1 | The level of expressed mRNA in the presence of chemical substance/The level of expressed mRNA in the absence of chemical substance (yeast gene YOL163W): 6.2 | The level of expressed mRNA in the presence of chemical substance/The level of expressed mRNA in the absence of chemical substance (yeast gene YOR035C): 1.7 | The level of expressed mRNA in the presence of chemical substance/The level of expressed mRNA in the absence of chemical substance (yeast gene YOR130C): 1.7 | The level of expressed mRNA in the presence of chemical substance/The level of expressed mRNA in the absence of chemical substance (yeast gene YOR153W): 1.2 | The level of expressed mRNA in the presence of chemical substance/The level of expressed mRNA in the absence of chemical substance (yeast gene YOR270C): 0.9 | The level of expressed mRNA in the presence of chemical substance/The level of expressed mRNA in the absence of chemical substance (yeast gene YOR273C): 0.5 | The level of expressed mRNA in the presence of chemical substance/The level of expressed mRNA in the absence of chemical substance (yeast gene YOR316C): 2.0 | The level of expressed mRNA in the presence of chemical substance/The level of expressed mRNA in the absence of chemical substance (yeast gene YOR332W): 1.1 | The level of expressed mRNA in the presence of chemical substance/The level of expressed mRNA in the absence of chemical substance (yeast gene YOR348C): 0.4 | The level of expressed mRNA in the presence of chemical substance/The level of expressed mRNA in the absence of chemical substance (yeast gene YPL036W): 0.3 | The level of expressed mRNA in the presence of chemical substance/The level of expressed mRNA in the absence of chemical substance (yeast gene YPL134C): 0.8 | The level of expressed mRNA in the presence of chemical substance/The level of expressed mRNA in the absence of chemical substance (yeast gene YPL265W): 1.2 | The level of expressed mRNA in the presence of chemical substance/The level of expressed mRNA in the absence of chemical substance (yeast gene YPL271W): 1.2 | The level of expressed mRNA in the presence of chemical substance/The level of expressed mRNA in the absence of chemical substance (yeast gene YPR124W): 1.5 | The level of expressed mRNA in the presence of chemical substance/The level of expressed mRNA in the absence of chemical substance (yeast gene YPR192W): 1.3 | The level of expressed mRNA in the presence of chemical substance/The level of expressed mRNA in the absence of chemical substance (yeast gene YPR194C): 0.6

Source: US8192962B2, “Processes for detecting toxic substances” (Daikin Industries, Ltd., priority 2001, dated 2012)
